Laboratory results reported in ChEMBL document CHEMBL3046590, “Design and synthesis of some thiazolotriazolyl esters as anti-inflammatory and analgesic agents” (Med Chem Res, 2012).

Assays:
[1] = tested on: Mus musculus; test: Antioxidant activity in Mus musculus BALB/c (mouse) stomach assessed as TBARS level at 100 mg/kg, po (reference value: 80.4 +/- 5.4 nmol/g ); assay type: functional
[2] = tested on: Mus musculus; test: Anti-inflammatory activity in Mus musculus BALB/c (mouse) assessed as carrageenan-induced paw swelling at 100 mg/kg, po administered 1 hr followed by carrageenan challenge measured at 90 min (reference value: 39 +/- 5.6 x 10^-2 mm); assay type: functional
[3] = tested on: Mus musculus; test: Toxicity in Mus musculus BALB/c (mouse) assessed as behavioral changes at 50 to 200 mg/kg, po after 72 hr; assay type: organism-based; parameters: dose 50-200 mg/kg, route oral; settings: in vivo
[4] = tested on: Mus musculus; test: Anti-inflammatory activity in Mus musculus BALB/c (mouse) assessed as carrageenan-induced paw swelling at 200 mg/kg, po administered 1 hr followed by carrageenan challenge measured at 90 min (reference value: 39 +/- 5.6 x 10^-2 mm); assay type: functional
[5] = tested on: Mus musculus; test: Toxicity in Mus musculus BALB/c (mouse) assessed as mortality at 50 to 200 mg/kg, po after 72 hr; assay type: organism-based; parameters: dose 50-200 mg/kg, route oral; settings: in vivo
[6] = tested on: Mus musculus; test: Anti-inflammatory activity in Mus musculus BALB/c (mouse) assessed as carrageenan-induced paw swelling at 200 mg/kg, po administered 1 hr followed by carrageenan challenge measured at 180 min (reference value: 52 +/- 4.6 x 10^-2 mm); assay type: functional
[7] = tested on: Mus musculus; test: Anti-inflammatory activity in Mus musculus BALB/c (mouse) assessed as inhibition of carrageenan-induced paw swelling at 200 mg/kg, po administered 1 hr followed by carrageenan challenge measured at 90 min relative to control; assay type: functional
[8] = tested on: Mus musculus; test: Anti-inflammatory activity in Mus musculus BALB/c (mouse) assessed as carrageenan-induced paw swelling at 100 mg/kg, po administered 1 hr followed by carrageenan challenge measured at 360 min (reference value: 105 +/- 4.5 x 10^-2 mm); assay type: functional
[9] = tested on: Mus musculus; test: Anti-inflammatory activity in Mus musculus BALB/c (mouse) assessed as carrageenan-induced paw swelling at 200 mg/kg, po administered 1 hr followed by carrageenan challenge measured at 270 min (reference value: 78 +/- 8.4 x 10^-2 mm); assay type: functional
[10] = tested on: Mus musculus; test: Anti-inflammatory activity in Mus musculus BALB/c (mouse) assessed as carrageenan-induced paw swelling at 100 mg/kg, po administered 1 hr followed by carrageenan challenge measured at 180 min (reference value: 52 +/- 4.6 x 10^-2 mm); assay type: functional
[11] = tested on: Mus musculus; test: Anti-inflammatory activity in Mus musculus BALB/c (mouse) assessed as carrageenan-induced paw swelling at 200 mg/kg, po administered 1 hr followed by carrageenan challenge measured at 360 min (reference value: 105 +/- 4.5 x 10^-2 mm); assay type: functional
[12] = tested on: Mus musculus; test: Anti-inflammatory activity in Mus musculus BALB/c (mouse) assessed as carrageenan-induced paw swelling at 50 mg/kg, po administered 1 hr followed by carrageenan challenge measured at 270 min (reference value: 78 +/- 8.4 x 10^-2 mm); assay type: functional
[13] = tested on: Mus musculus; test: Anti-inflammatory activity in Mus musculus BALB/c (mouse) assessed as inhibition of carrageenan-induced paw swelling at 50 mg/kg, po administered 1 hr followed by carrageenan challenge measured at 270 min relative to control; assay type: functional
[14] = tested on: Mus musculus; test: Anti-inflammatory activity in Mus musculus BALB/c (mouse) assessed as carrageenan-induced paw swelling at 50 mg/kg, po administered 1 hr followed by carrageenan challenge measured at 90 min (reference value: 39 +/- 5.6 x 10^-2 mm); assay type: functional
[15] = tested on: Mus musculus; test: Anti-inflammatory activity in Mus musculus BALB/c (mouse) assessed as carrageenan-induced paw swelling at 50 mg/kg, po administered 1 hr followed by carrageenan challenge measured at 180 min (reference value: 52 +/- 4.6 x 10^-2 mm); assay type: functional
[16] = tested on: Mus musculus; test: Anti-inflammatory activity in Mus musculus BALB/c (mouse) assessed as carrageenan-induced paw swelling at 50 mg/kg, po administered 1 hr followed by carrageenan challenge measured at 360 min (reference value: 105 +/- 4.5 x 10^-2 mm); assay type: functional
[17] = tested on: Mus musculus; test: Anti-inflammatory activity in Mus musculus BALB/c (mouse) assessed as inhibition of carrageenan-induced paw swelling at 100 mg/kg, po administered 1 hr followed by carrageenan challenge measured at 180 min relative to control; assay type: functional
[18] = tested on: Mus musculus; test: Anti-inflammatory activity in Mus musculus BALB/c (mouse) assessed as carrageenan-induced paw swelling at 100 mg/kg, po administered 1 hr followed by carrageenan challenge measured at 270 min (reference value: 78 +/- 8.4 x 10^-2 mm); assay type: functional
[19] = tested on: Mus musculus; test: Anti-inflammatory activity in Mus musculus BALB/c (mouse) assessed as inhibition of carrageenan-induced paw swelling at 50 mg/kg, po administered 1 hr followed by carrageenan challenge measured at 180 min relative to control; assay type: functional
[20] = tested on: Mus musculus; test: Anti-inflammatory activity in Mus musculus BALB/c (mouse) assessed as inhibition of carrageenan-induced paw swelling at 200 mg/kg, po administered 1 hr followed by carrageenan challenge measured at 270 min relative to control; assay type: functional
[21] = tested on: Mus musculus; test: Analgesic activity in Mus musculus BALB/c (mouse) assessed as inhibition of acetic acid-induced writhing at 100 mg/kg, po administered 1 hr followed by acetic acid challenge measured for 10 min; assay type: functional
[22] = tested on: Mus musculus; test: Anti-inflammatory activity in Mus musculus BALB/c (mouse) assessed as inhibition of carrageenan-induced paw swelling at 100 mg/kg, po administered 1 hr followed by carrageenan challenge measured at 270 min relative to control; assay type: functional
[23] = tested on: Mus musculus; test: Anti-inflammatory activity in Mus musculus BALB/c (mouse) assessed as inhibition of carrageenan-induced paw swelling at 200 mg/kg, po administered 1 hr followed by carrageenan challenge measured at 180 min relative to control; assay type: functional
[24] = tested on: Mus musculus; test: Anti-inflammatory activity in Mus musculus BALB/c (mouse) assessed as inhibition of carrageenan-induced paw swelling at 50 mg/kg, po administered 1 hr followed by carrageenan challenge measured at 90 min relative to control; assay type: functional
[25] = tested on: Mus musculus; test: Anti-inflammatory activity in Mus musculus BALB/c (mouse) assessed as inhibition of carrageenan-induced paw swelling at 100 mg/kg, po administered 1 hr followed by carrageenan challenge measured at 360 min relative to control; assay type: functional
[26] = tested on: Mus musculus; test: Anti-inflammatory activity in Mus musculus BALB/c (mouse) assessed as inhibition of carrageenan-induced paw swelling at 100 mg/kg, po administered 1 hr followed by carrageenan challenge measured at 90 min relative to control; assay type: functional
[27] = tested on: Mus musculus; test: Anti-inflammatory activity in Mus musculus BALB/c (mouse) assessed as inhibition of carrageenan-induced paw swelling at 50 mg/kg, po administered 1 hr followed by carrageenan challenge measured at 360 min relative to control; assay type: functional
[28] = tested on: Mus musculus; test: Anti-inflammatory activity in Mus musculus BALB/c (mouse) assessed as inhibition of carrageenan-induced paw swelling at 200 mg/kg, po administered 1 hr followed by carrageenan challenge measured at 360 min relative to control; assay type: functional
[29] = tested on: Mus musculus; test: Anti-inflammatory activity in Mus musculus BALB/c (mouse) assessed as inhibition of carrageenan-induced paw swelling at 10 mg/kg, po administered 1 hr followed by carrageenan challenge measured at 270 min relative to control; assay type: functional
[30] = tested on: Mus musculus; test: Anti-inflammatory activity in Mus musculus BALB/c (mouse) assessed as inhibition of carrageenan-induced paw swelling at 10 mg/kg, po administered 1 hr followed by carrageenan challenge measured at 180 min relative to control; assay type: functional
[31] = tested on: Mus musculus; test: Anti-inflammatory activity in Mus musculus BALB/c (mouse) assessed as inhibition of carrageenan-induced paw swelling at 10 mg/kg, po administered 1 hr followed by carrageenan challenge measured at 360 min relative to control; assay type: functional
[32] = tested on: Mus musculus; test: Anti-inflammatory activity in Mus musculus BALB/c (mouse) assessed as inhibition of carrageenan-induced paw swelling at 10 mg/kg, po administered 1 hr followed by carrageenan challenge measured at 90 min relative to control; assay type: functional

Row | SMILES | Activity [1] [nmol/g] | Activity [2] [×10⁻² mm] | Activity [3] | Activity [4] [×10⁻² mm] | Activity [5] | Activity [6] [×10⁻² mm] | inhibition in vivo at 200 mg/kg [7] [%] | Activity [8] [×10⁻² mm] | Activity [9] [×10⁻² mm] | Activity [10] [×10⁻² mm] | Activity [11] [×10⁻² mm] | Activity [12] [×10⁻² mm] | Activity [14] [×10⁻² mm] | Activity [15] [×10⁻² mm] | Activity [16] [×10⁻² mm] | inhibition in vivo at 100 mg/kg [17] [%] | Activity [18] [×10⁻² mm] | inhibition in vivo at 200 mg/kg [20] [%] | inhibition in vivo at 100 mg/kg [21] [%] | inhibition in vivo at 100 mg/kg [25] [%] | also measured
1 | COc1ccc(-c2nnc(S)[nH]2)cc1 | 73.3 | 33.7 | Non-toxic | 32.4 | Non-toxic | 53.2 | 16.9 | 133 | 75 | 32.3 | 104.5 | 64.8 | 59.3 | 49.7 | 100 | 37.9 | 79.5 |  |  |  | inhibition in vivo at 50 mg/kg [13]: 17.9%
2 | CCOC(=O)c1sc2nc(CCc3cc(OC)c(OC)c(OC)c3)nn2c1C | 109.1 | 34.5 | Non-toxic | 32.4 | Non-toxic | 38.9 |  | 83.8 | 60.9 | 37 | 92.9 | 73.8 | 19.5 | 29 | 101.4 | 28.8 | 63.4 | 21.9 | 85.9 | 20.2 | inhibition in vivo at 50 mg/kg [19]: 44.2%; inhibition in vivo at 100 mg/kg [22]: 18.7%; inhibition in vivo at 200 mg/kg [23]: 25.2%; inhibition in vivo at 50 mg/kg [24]: 50%
3 | COc1cc(CCC2=NC(=S)N=N2)cc(OC)c1OC | 79.1 | 28 | Non-toxic | 39.7 | Non-toxic | 50.5 |  | 65.1 | 70.3 | 30.8 | 106.7 | 74.5 | 52.6 | 48.2 | 84.1 | 40.8 | 37.3 |  |  | 38 | inhibition in vivo at 100 mg/kg [22]: 52.2%; inhibition in vivo at 100 mg/kg [26]: 28.2%; inhibition in vivo at 50 mg/kg [27]: 19.9%
4 | CCOC(=O)Cc1csc2nc(-c3ccc(Cl)cc3)nn12 | 157.2 | 43.7 | Non-toxic | 29.1 | Non-toxic | 37.2 | 25.4 | 70 | 58.6 | 52.5 | 86.7 | 88.5 | 61 | 66.1 | 105 |  | 82.5 | 24.9 | 38.5 | 33.3 | inhibition in vivo at 200 mg/kg [28]: 17.4%; inhibition in vivo at 200 mg/kg [23]: 28.5%
5 | COc1ccc2c(c1)c(CC(=O)O)c(C)n2C(=O)c1ccc(Cl)cc1 [INDOMETHACIN] |  |  | Non-toxic |  | Non-toxic |  |  |  |  |  |  |  |  |  |  |  |  |  |  |  | inhibition in vivo at 10 mg/kg [29]: 34.6%; inhibition in vivo at 10 mg/kg [30]: 56.7%; inhibition in vivo at 10 mg/kg [31]: 26.7%; inhibition in vivo at 10 mg/kg [32]: 6.9%
